Data published in PMC7588595, “Small-molecule active pharmaceutical ingredients of approved cancer therapeutics inhibit human aspartate/asparagine-β-hydroxylase” (Bioorganic & Medicinal Chemistry, 2020).
Counter-ions that a name gives are not always drawn. Like-named read-outs stand apart in the source and are kept apart here. One block for each compound: values may come before it. Starred links: 1 amine or outer side, 2 acyl side, 3 side chain; linkers in the order of their positions; H or OH if unused. Positions of bridges follow the written chain, without caps; N, C: chain ends. Non-standard residues stand in square brackets, D forms with d. Residues, ends and D or L forms follow the SMILES beside them. Chains are numbered I, II in the order given. Actinocin(9to1) = Cc1c2oc3c(C)ccc(C(=O)[*:1])c3nc-2c(C(=O)[*:2])c(N)c1=O; NMeV = CN[C@H](C(=O)O)C(C)C; Sar = CNCC(=O)O

Target: T1, human AspH (His6-AspH315–758) (Homo sapiens, UniProt Q12797)
T1 construct: N-Terminally His6-tagged human AspH315–758 (His6-AspH315–758) was produced in Escherichia coli BL21 (DE3) cells; made in house; host or cells: Escherichia coli BL21 (DE3), pET-28a(+) vector
T1 sequence (Q12797 315-758): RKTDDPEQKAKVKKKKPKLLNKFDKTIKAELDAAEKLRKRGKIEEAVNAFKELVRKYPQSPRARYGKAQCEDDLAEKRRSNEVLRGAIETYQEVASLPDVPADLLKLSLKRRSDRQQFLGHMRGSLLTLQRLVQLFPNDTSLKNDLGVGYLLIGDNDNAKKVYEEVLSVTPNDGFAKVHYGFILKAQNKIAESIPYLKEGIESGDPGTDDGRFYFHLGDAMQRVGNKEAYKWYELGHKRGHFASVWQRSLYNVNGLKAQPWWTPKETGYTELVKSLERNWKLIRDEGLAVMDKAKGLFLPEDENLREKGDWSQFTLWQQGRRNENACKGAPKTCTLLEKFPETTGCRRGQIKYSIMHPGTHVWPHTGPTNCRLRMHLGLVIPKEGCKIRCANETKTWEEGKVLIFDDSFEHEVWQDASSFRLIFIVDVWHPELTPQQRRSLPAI
Assay: SPE-MS AspH inhibition assay (hFX-CP101-119 substrate hydroxylation)
Assay type: biochemical

[1] = AspH-inhibitor screening, 384-well Plate 1
[2] = AspH-inhibitor screening, 384-well Plate 1, substrate conversion
[3] = AspH-inhibitor screening, Plate 1-duplicate
[4] = AspH-inhibitor screening, Plate 1-duplicate, substrate conversion

Plate 1 (% inhibition) [1]: -15.11%
Plate 1 (% conversion) [2]: 56.73%
Plate 1-duplicate (% inhibition) [3]: -6.96%
Plate 1-duplicate (% conversion) [4]: 55.49%
Compound: CN1CCN(c2ccc3nc(-c4c(N)c5c(F)cccc5[nH]c4=O)[nH]c3c2)CC1 [CHIR-258 (Dovitinib)]

Plate 1 (% inhibition) [1]: -9.77%
Plate 1 (% conversion) [2]: 54.26%
Plate 1-duplicate (% inhibition) [3]: -16.99%
Plate 1-duplicate (% conversion) [4]: 60.47%
Compound: CC(C)C[C@@H](C(=O)N[C@H](C(=O)OC1CCCC1)c1ccccc1)[C@H](O)C(=O)NO [CHR 2797_Tosedostat]

Plate 1 (% inhibition) [1]: -2.25%
Plate 1 (% conversion) [2]: 50.79%
Plate 1-duplicate (% inhibition) [3]: -2.45%
Plate 1-duplicate (% conversion) [4]: 53.26%
Compound: O=C(O)CCCCC(CCSCc1ccccc1)SCc1ccccc1 (stereo not drawn) [CPI-613]

Plate 1 (% inhibition) [1]: 5.72%
Plate 1 (% conversion) [2]: 47.11%
Plate 1-duplicate (% inhibition) [3]: 4.84%
Plate 1-duplicate (% conversion) [4]: 49.64%
Compound: N#CCNC(=O)c1ccc(-c2ccnc(Nc3ccc(N4CCOCC4)cc3)n2)cc1 [CYT-387_Momelotinib]

Plate 1 (% inhibition) [1]: -58.69%
Plate 1 (% conversion) [2]: 76.85%
Plate 1-duplicate (% inhibition) [3]: -55.96%
Plate 1-duplicate (% conversion) [4]: 79.80%
Compound: C=CC(=O)Nc1cc2c(Nc3ccc(F)c(Cl)c3)ncnc2cc1OCCCN1CCOCC1 [Canertinib]

Plate 1 (% inhibition) [1]: 3.89%
Plate 1 (% conversion) [2]: 47.95%
Plate 1-duplicate (% inhibition) [3]: 10.65%
Plate 1-duplicate (% conversion) [4]: 46.76%
Compound: CCCCCOC(=O)Nc1nc(=O)n([C@@H]2O[C@H](C)[C@@H](O)[C@H]2O)cc1F [Capecitabine]

Plate 1 (% inhibition) [1]: -2.16%
Plate 1 (% conversion) [2]: 50.75%
Plate 1-duplicate (% inhibition) [3]: -9.02%
Plate 1-duplicate (% conversion) [4]: 56.51%
Compound: CC(C)C[C@H](NC(=O)[C@H](CCc1ccccc1)NC(=O)CN1CCOCC1)C(=O)N[C@@H](Cc1ccccc1)C(=O)N[C@@H](CC(C)C)C(=O)[C@@]1(C)CO1 [Carfilzomib]

Plate 1 (% inhibition) [1]: -42.78%
Plate 1 (% conversion) [2]: 69.51%
Plate 1-duplicate (% inhibition) [3]: -39.63%
Plate 1-duplicate (% conversion) [4]: 71.70%
Compound: Cc1cc(Nc2ncc(Cl)c(Nc3ccccc3S(=O)(=O)C(C)C)n2)c(OC(C)C)cc1C1CCNCC1 [Ceritinib]

Plate 1 (% conversion): 43.64%
Plate 1 (% inhibition): 13.23%
Plate 1-duplicate (% conversion): 46.45%
Plate 1-duplicate (% inhibition): 11.28%
Compound: CCN(CC)CCCC(C)Nc1ccnc2cc(Cl)ccc12 (stereo not drawn) [Chloroquine diphosphate]

Plate 1 (% inhibition) [1]: -5.94%
Plate 1 (% conversion) [2]: 52.49%
Plate 1-duplicate (% inhibition) [3]: -8.08%
Plate 1-duplicate (% conversion) [4]: 56.05%
Compound: O=C(c1ccc(F)c(F)c1Nc1ccc(I)cc1F)N1CC(O)([C@@H]2CCCCN2)C1 [Cobimetinib]

Plate 1 (% inhibition) [1]: 2.14%
Plate 1 (% conversion) [2]: 48.76%
Plate 1-duplicate (% inhibition) [3]: 3.50%
Plate 1-duplicate (% conversion) [4]: 50.30%
Compound: Nc1ccn([C@@H]2O[C@H](CO)[C@@H](O)[C@@H]2O)c(=O)n1 [Cytarabine hydrochloride]

Plate 1 (% inhibition) [1]: 0.16%
Plate 1 (% conversion) [2]: 49.67%
Plate 1-duplicate (% inhibition) [3]: 3.62%
Plate 1-duplicate (% conversion) [4]: 50.25%
Compound: CNC(=O)c1cc(Oc2ccc(NC(=O)Nc3cc(C(C)(C)C)nn3-c3ccc4ncccc4c3)c(F)c2)ccn1 [DCC-2036_Rebastinib]

Plate 1 (% inhibition) [1]: 21.60%
Plate 1 (% conversion) [2]: 39.78%
Plate 1-duplicate (% inhibition) [3]: 12.13%
Plate 1-duplicate (% conversion) [4]: 46.02%
Compound: CC(C)(C)c1nc(-c2cccc(NS(=O)(=O)c3c(F)cccc3F)c2F)c(-c2ccnc(N)n2)s1.CS(=O)(=O)O [Dabrafenib Mesylate]

Plate 1 (% inhibition) [1]: -0.11%
Plate 1 (% conversion) [2]: 49.80%
Plate 1-duplicate (% inhibition) [3]: 7.93%
Plate 1-duplicate (% conversion) [4]: 48.11%
Compound: CN(C)/N=N/c1[nH]cnc1C(N)=O [Dacarbazine]

Plate 1 (% inhibition) [1]: -68.38%
Plate 1 (% conversion) [2]: 81.33%
Plate 1-duplicate (% inhibition) [3]: -15.02%
Plate 1-duplicate (% conversion) [4]: 59.49%
Compound: COc1cc2ncnc(Nc3ccc(F)c(Cl)c3)c2cc1NC(=O)/C=C/CN1CCCCC1.O [Dacomitinib (monohydrate) (PF-00299804)]

Second part, the compound before the results:

Compound: CC(=O)Nc1ccc(C(=O)Nc2ccccc2N)cc1 [CI-994_Tacedinaline]
Plate 1 (% inhibition) [1]: 4.32%
Plate 1 (% conversion) [2]: 47.76%
Plate 1-duplicate (% inhibition) [3]: 4.57%
Plate 1-duplicate (% conversion) [4]: 49.78%

Compound: C#Cc1cccc(Nc2ncnc3cc(OC)c(OCCCCCCC(=O)NO)cc23)c1 [CUDC-101]
Plate 1 (% inhibition) [1]: 70.67%
Plate 1 (% conversion) [2]: 17.12%
Plate 1-duplicate (% inhibition) [3]: 72.15%
Plate 1-duplicate (% conversion) [4]: 16.26%

Compound: CO[C@H]1C(=O)[C@]2(C)[C@@H](OC)C[C@H]3OC[C@@]3(OC(C)=O)[C@H]2[C@H](OC(=O)c2ccccc2)[C@]2(O)C[C@H](OC(=O)[C@H](O)[C@@H](NC(=O)OC(C)(C)C)c3ccccc3)C(C)=C1C2(C)C [Cabazitaxel]
Plate 1 (% inhibition) [1]: -8.77%
Plate 1 (% conversion) [2]: 53.80%
Plate 1-duplicate (% inhibition) [3]: -20.49%
Plate 1-duplicate (% conversion) [4]: 62.20%

Compound: CC[C@@]1(O)C(=O)OCc2c1cc1n(c2=O)Cc2cc3ccccc3nc2-1 [Camptothecin]
Plate 1 (% inhibition) [1]: 4.52%
Plate 1 (% conversion) [2]: 47.66%
Plate 1-duplicate (% inhibition) [3]: 4.34%
Plate 1-duplicate (% conversion) [4]: 49.89%

Compound: N.N.O=C([O-])C1(C(=O)[O-])CCC1.[Pt+2] [Carboplatin]
Plate 1 (% inhibition) [1]: 3.32%
Plate 1 (% conversion) [2]: 48.22%
Plate 1-duplicate (% inhibition) [3]: 9.11%
Plate 1-duplicate (% conversion) [4]: 47.52%

Compound: O=NN(CCCl)C(=O)NCCCl [Carmustine]
Plate 1 (% inhibition) [1]: 1.59%
Plate 1 (% conversion) [2]: 49.02%
Plate 1-duplicate (% inhibition) [3]: 7.94%
Plate 1-duplicate (% conversion) [4]: 48.11%

Compound: Cc1ccc(-c2cc(C(F)(F)F)nn2-c2ccc(S(N)(=O)=O)cc2)cc1 [Celecoxib]
Plate 1 (% inhibition) [1]: -8.28%
Plate 1 (% conversion) [2]: 53.57%
Plate 1-duplicate (% inhibition) [3]: -15.35%
Plate 1-duplicate (% conversion) [4]: 59.65%

Compound: O=C(O)CCCc1ccc(N(CCCl)CCCl)cc1 [Chlorambucil]
Plate 1 (% inhibition) [1]: 2.87%
Plate 1 (% conversion) [2]: 48.43%
Plate 1-duplicate (% inhibition) [3]: 1.52%
Plate 1-duplicate (% conversion) [4]: 51.29%

Compound: N.N.[Cl][Pt][Cl] [Cisplatin aq]
Plate 1 (% inhibition) [1]: 26.89%
Plate 1 (% conversion) [2]: 37.33%
Plate 1-duplicate (% inhibition) [3]: 26.45%
Plate 1-duplicate (% conversion) [4]: 38.92%

Compound: Nc1nc(Cl)nc2c1ncn2[C@H]1C[C@H](O)[C@@H](CO)O1 [Cladribine]
Plate 1 (% inhibition) [1]: 3.47%
Plate 1 (% conversion) [2]: 48.15%
Plate 1-duplicate (% inhibition) [3]: 3.70%
Plate 1-duplicate (% conversion) [4]: 50.21%

Compound: O=P1(N(CCCl)CCCl)NCCCO1 (stereo not drawn) [Clafen (Cyclophosphamide, Endoxan)]
Plate 1 (% conversion): 48.48%
Plate 1 (% inhibition): 2.76%
Plate 1-duplicate (% conversion): 50.72%
Plate 1-duplicate (% inhibition): 2.67%

Compound: Nc1nc(Cl)nc2c1ncn2[C@@H]1O[C@H](CO)[C@@H](O)[C@@H]1F [Clofarabine]
Plate 1 (% inhibition) [1]: 6.71%
Plate 1 (% conversion) [2]: 46.65%
Plate 1-duplicate (% inhibition) [3]: 3.66%
Plate 1-duplicate (% conversion) [4]: 50.22%

Compound: CCN(CC)CCOc1ccc(C(=C(Cl)c2ccccc2)c2ccccc2)cc1 [Clomifene citrate]
Plate 1 (% inhibition) [1]: 59.99%
Plate 1 (% conversion) [2]: 22.05%
Plate 1-duplicate (% inhibition) [3]: 68.69%
Plate 1-duplicate (% conversion) [4]: 17.97%

Compound: CC1(COc2ccc3c(c2)ncn3-c2ccc3cccc(N4CCC(N)CC4)c3n2)COC1 [Crenolanib]
Plate 1 (% inhibition) [1]: -2.58%
Plate 1 (% conversion) [2]: 50.94%
Plate 1-duplicate (% inhibition) [3]: -3.79%
Plate 1-duplicate (% conversion) [4]: 53.92%

Compound: C[C@@H](Oc1cc(-c2cnn(C3CCNCC3)c2)cnc1N)c1c(Cl)ccc(F)c1Cl [Crizotinib]
Plate 1 (% inhibition) [1]: -6.35%
Plate 1 (% conversion) [2]: 52.68%
Plate 1-duplicate (% inhibition) [3]: -0.27%
Plate 1-duplicate (% conversion) [4]: 52.18%

Compound: O=P1(N(CCCl)CCCl)NCCCO1 (stereo not drawn) [Cyclophosphamide]
Plate 1 (% conversion): 44.96%
Plate 1 (% inhibition): 10.37%
Plate 1-duplicate (% conversion): 48.17%
Plate 1-duplicate (% inhibition): 7.81%

Compound: Cc1c2oc3c(C)ccc(C(=O)N[C@@H]4C(=O)N[C@H](C(C)C)C(=O)N5CCC[C@H]5C(=O)N(C)CC(=O)N(C)[C@@H](C(C)C)C(=O)O[C@@H]4C)c3nc-2c(C(=O)N[C@@H]2C(=O)N[C@H](C(C)C)C(=O)N3CCC[C@H]3C(=O)N(C)CC(=O)N(C)[C@@H](C(C)C)C(=O)O[C@@H]2C)c(N)c1=O [Dactinomycin] (I: T[dV]P[Sar][NMeV] / II: T[dV]P[Sar][NMeV]; ester I:1-I:C, II:1-II:C; linker I:N-II:N via Actinocin(9to1))
Plate 1 (% inhibition) [1]: -0.066%
Plate 1 (% conversion) [2]: 49.78%
Plate 1-duplicate (% inhibition) [3]: -9.41%
Plate 1-duplicate (% conversion) [4]: 56.71%

Compound: Cc1nc(Nc2ncc(C(=O)Nc3c(C)cccc3Cl)s2)cc(N2CCN(CCO)CC2)n1 [Dasatinib]
Plate 1 (% inhibition) [1]: -20.82%
Plate 1 (% conversion) [2]: 59.36%
Plate 1-duplicate (% inhibition) [3]: -21.12%
Plate 1-duplicate (% conversion) [4]: 62.52%
